# Measurements reported in ChEMBL document CHEMBL5154659, “A3 adenosine receptor agonists containing dopamine moieties for enhanced interspecies affinity” (Eur J Med Chem, 2022).
# Tests used:
# Adenosine receptor A3 [1] = molecular target: T1, Adenosine receptor A3 (Mus musculus, UniProt Q61618); assay: Displacement of [125I] N6-4-amino-3-iodobenzyl adenosine 5-N-methyluronamide from mouse A3A receptor stably expressed in HEK293 cell membrane by radioligand inhibition assay; format: cell membranes
# T1 sequence (Q61618 whole entry): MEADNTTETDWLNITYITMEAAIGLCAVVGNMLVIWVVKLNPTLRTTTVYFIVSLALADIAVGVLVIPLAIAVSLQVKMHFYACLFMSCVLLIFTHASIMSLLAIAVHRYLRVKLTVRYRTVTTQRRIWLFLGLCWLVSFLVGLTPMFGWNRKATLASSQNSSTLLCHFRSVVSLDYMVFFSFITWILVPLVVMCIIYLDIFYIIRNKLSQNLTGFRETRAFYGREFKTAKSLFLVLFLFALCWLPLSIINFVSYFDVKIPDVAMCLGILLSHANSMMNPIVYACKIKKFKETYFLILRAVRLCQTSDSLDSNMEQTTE
# [2] = molecular target: T2, Adenosine receptor A1 (Homo sapiens) (UniProt P30542); assay: Binding affinity to human adenosine A1A receptor expressed in human HEK293 cell membrane at 10 uM by radioligand inhibition assay; format: cell membranes
# T2 sequence (whole entry): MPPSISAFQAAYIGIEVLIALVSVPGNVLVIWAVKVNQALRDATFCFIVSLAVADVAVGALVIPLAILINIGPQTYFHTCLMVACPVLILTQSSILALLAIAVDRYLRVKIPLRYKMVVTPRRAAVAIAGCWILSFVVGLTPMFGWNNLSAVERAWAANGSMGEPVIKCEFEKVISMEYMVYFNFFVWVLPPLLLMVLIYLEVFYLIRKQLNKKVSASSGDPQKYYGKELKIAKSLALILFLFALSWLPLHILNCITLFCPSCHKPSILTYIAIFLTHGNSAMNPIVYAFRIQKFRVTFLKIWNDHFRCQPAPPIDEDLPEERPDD
# [3] = molecular target: T3, Adenosine receptor A1 (Mus musculus) (UniProt Q60612); assay: Binding affinity to mouse adenosine A1A receptor expressed in human HEK293 cell membrane by radioligand inhibition assay; format: cell membranes; parameters: concentration or dose not given beside the values; details: concentration not given here
# T3 sequence (whole entry): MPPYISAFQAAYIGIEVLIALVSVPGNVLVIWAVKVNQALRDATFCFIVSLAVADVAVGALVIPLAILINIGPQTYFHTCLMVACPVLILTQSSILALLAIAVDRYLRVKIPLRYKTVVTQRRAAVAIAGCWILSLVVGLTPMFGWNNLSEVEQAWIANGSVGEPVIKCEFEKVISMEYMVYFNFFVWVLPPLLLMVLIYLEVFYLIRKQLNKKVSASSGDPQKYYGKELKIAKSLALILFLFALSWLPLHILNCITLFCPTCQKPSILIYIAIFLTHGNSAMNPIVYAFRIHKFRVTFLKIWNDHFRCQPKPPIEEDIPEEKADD
# Adenosine receptor A2a [4] = molecular target: T4, Adenosine receptor A2a (Homo sapiens, UniProt P29274); assay: Binding affinity to human adenosine A2A receptor expressed in human HEK293 cell membrane at 10 uM by radioligand inhibition assay; format: cell membranes
# T4 sequence (P29274 whole entry): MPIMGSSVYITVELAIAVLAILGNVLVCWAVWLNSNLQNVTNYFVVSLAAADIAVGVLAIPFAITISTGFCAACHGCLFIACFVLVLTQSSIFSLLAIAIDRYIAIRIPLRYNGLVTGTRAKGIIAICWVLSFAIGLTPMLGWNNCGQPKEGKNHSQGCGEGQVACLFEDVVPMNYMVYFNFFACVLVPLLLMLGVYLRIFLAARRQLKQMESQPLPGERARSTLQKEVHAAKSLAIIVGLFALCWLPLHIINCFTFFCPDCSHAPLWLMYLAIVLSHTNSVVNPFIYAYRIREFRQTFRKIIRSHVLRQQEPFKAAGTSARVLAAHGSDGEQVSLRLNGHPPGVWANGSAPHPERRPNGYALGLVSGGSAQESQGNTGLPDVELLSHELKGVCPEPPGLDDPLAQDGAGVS
# Adenosine receptor A3 [5] = molecular target: T5, Adenosine receptor A3 (Homo sapiens, UniProt P0DMS8); assay: Displacement of [125I] N6-(4-amino-3-iodobenzyl)adenosine-5'-N-methyluronamide from human A3A receptor stably expressed in HEK293 cell membrane by radioligand inhibition assay; format: cell membranes
# T5 sequence (P0DMS8 whole entry): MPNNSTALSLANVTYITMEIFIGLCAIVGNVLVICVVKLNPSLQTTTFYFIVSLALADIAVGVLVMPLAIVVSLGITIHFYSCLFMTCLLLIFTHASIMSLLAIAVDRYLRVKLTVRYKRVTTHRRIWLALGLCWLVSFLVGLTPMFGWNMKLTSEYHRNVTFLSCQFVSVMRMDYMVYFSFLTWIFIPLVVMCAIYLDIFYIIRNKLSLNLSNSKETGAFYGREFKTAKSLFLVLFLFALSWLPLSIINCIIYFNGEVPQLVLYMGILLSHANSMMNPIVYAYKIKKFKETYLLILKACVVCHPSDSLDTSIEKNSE
# Adenosine receptor A3 [6] = molecular target: T5, Adenosine receptor A3; assay: Agonist activity at human adenosine A3A receptor stably expressed in HEK293 cells assessed as beta arrestin 2 recruitment potency by luciferase based NanoBiT assay; format: functional, cell-based
# Adenosine receptor A3 [7] = molecular target: T5, Adenosine receptor A3; assay: Agonist activity at human adenosine A3A receptor stably expressed in HEK293 cells assessed as mini G-alpha recruitment potency by luciferase based NanoBiT assay; format: functional, cell-based
# Adenosine receptor A2a [8] = molecular target: T4, Adenosine receptor A2a; assay: Displacement of [3H]-2-p-2-(carboxyethyl)phenyl-ethylamino-5'-N-ethylcarboxamidoadenosine from human A2A receptor stably expressed in HEK293 cell membrane by radioligand inhibition assay; format: cell membranes
# Adenosine receptor A1 = molecular target: T6, Adenosine receptor A1 (Mus musculus, UniProt Q60612); assay: Displacement of [3H] N6-R-phenylisopropyladenosine from mouse A1A receptor stably expressed in HEK293 cell membrane by radioligand inhibition assay; format: cell membranes
# T6 sequence (Q60612 whole entry): T3 sequence (whole entry)
Structure (SMILES),Ki (Adenosine receptor A3 [1]),inhibition [2],inhibition [3],inhibition (Adenosine receptor A2a [4]),Ki (Adenosine receptor A3 [5]),EC50 (Adenosine receptor A3 [6]),EC50 (Adenosine receptor A3 [7]),Ki (Adenosine receptor A2a [8]),Ki (Adenosine receptor A1)
CNC(=O)[C@@]12C[C@@H]1[C@@H](n1cnc3c(NCCc4ccc(OC)c(O)c4)nc(OCCCC4CCCCC4)nc31)[C@H](O)[C@@H]2O,6.42 nM,–,–,–,–,–,–,–,–
CNC(=O)[C@@]12C[C@@H]1[C@@H](n1cnc3c(NCCc4ccc(OC)c(O)c4)nc(C#Cc4ccc(Cl)s4)nc31)[C@H](O)[C@@H]2O,1.7 nM,0%,44%,34%,8.31 nM,–,–,–,–
CNC(=O)[C@@]12C[C@@H]1[C@@H](n1cnc3c(NCCc4ccc(OC)c(O)c4)nc(OC)nc31)[C@H](O)[C@@H]2O,5.43 nM,59%,–,–,3.89 nM,50.2 nM,38.5 nM,10.2 µM,–
COc1cc(CCNc2nc(OCC(C)C)nc3c2ncn3[C@H]2[C@H](O)[C@H](O)[C@@H]3C[C@@H]32)ccc1O,–,4%,–,–,13.1 nM,–,–,5.05 µM,–
CNC(=O)[C@@]12C[C@@H]1[C@@H](n1cnc3c(NCCc4ccc(O)c(O)c4)nc(C#Cc4ccc(Cl)s4)nc31)[C@H](O)[C@@H]2O,0.91 nM,25%,–,8%,20.8 nM,–,–,–,–
CNC(=O)[C@@]12C[C@@H]1[C@@H](n1cnc3c(NCCc4ccc(O)c(OC)c4)nc(C#Cc4ccc(Br)s4)nc31)[C@H](O)[C@@H]2O,1.32 nM,–,–,43%,3.41 nM,–,–,–,–
O[C@@H]1[C@H](O)[C@@H]2C[C@@H]2[C@H]1n1cnc2c(NCCc3ccccc3)nc(I)nc21,–,–,–,–,23.1 nM,–,–,5.86 µM,–
CCOC(=O)[C@@]12C[C@@H]1[C@@H](n1cnc3c(NCCc4ccc(OC)c(O)c4)nc(C#Cc4ccc(Cl)s4)nc31)[C@H](O)[C@@H]2O,104 nM,7%,56%,25%,32.8 nM,–,–,–,–
CNC(=O)[C@@]12C[C@@H]1[C@@H](n1cnc3c(NCCc4ccc(O)c(OC)c4)nc(I)nc31)[C@H](O)[C@@H]2O,2.25 nM,46%,–,43%,6.34 nM,–,–,–,476 nM
CNC(=O)[C@@]12C[C@@H]1[C@@H](n1cnc3c(NCCc4ccc(O)c(OC)c4)nc(C#Cc4ccsc4)nc31)[C@H](O)[C@@H]2O,2.08 nM,30%,61%,35%,3.34 nM,–,–,–,–
CNC(=O)[C@@]12C[C@@H]1[C@@H](n1cnc3c(NCCc4ccc(O)c(OC)c4)nc(C#Cc4ccc(F)c(F)c4)nc31)[C@H](O)[C@@H]2O,3.31 nM,11%,–,9%,4.98 nM,–,–,–,5800 nM
CNC(=O)[C@@]12C[C@@H]1[C@@H](n1cnc3c(NCCc4ccc(O)c(OC)c4)nc(C#Cc4ccco4)nc31)[C@H](O)[C@@H]2O,1.56 nM,9%,40%,32%,3.25 nM,–,–,–,–

# Other lines, results leading:
Ki (Adenosine receptor A3 [1]),inhibition [2],inhibition [3],inhibition (Adenosine receptor A2a [4]),Ki (Adenosine receptor A3 [5]),EC50 (Adenosine receptor A3 [6]),EC50 (Adenosine receptor A3 [7]),Ki (Adenosine receptor A2a [8]),Ki (Adenosine receptor A1),Structure (SMILES)
–,0%,57%,33%,37.4 nM,–,–,–,–,CCOC(=O)[C@@]12C[C@@H]1[C@@H](n1cnc3c(NCCc4ccc(O)c(OC)c4)nc(C#Cc4ccc(Cl)s4)nc31)[C@H](O)[C@@H]2O
1.46 nM,2%,48%,32%,3.31 nM,24.9 nM,23.7 nM,–,–,CNC(=O)[C@@]12C[C@@H]1[C@@H](n1cnc3c(NCCc4ccc(O)c(OC)c4)nc(C#Cc4ccc(F)s4)nc31)[C@H](O)[C@@H]2O
–,–,–,–,–,–,–,8.21 µM,2330 nM,CNC(=O)[C@@]12C[C@@H]1[C@@H](n1cnc3c(NCc4ccc(O)c(OC)c4)nc(C#Cc4ccc(Cl)s4)nc31)[C@H](O)[C@@H]2O
1.26 nM,12%,47%,37%,3.33 nM,–,–,–,–,CNC(=O)[C@@]12C[C@@H]1[C@@H](n1cnc3c(NCCc4ccc(O)c(OC)c4)nc(C#Cc4cccs4)nc31)[C@H](O)[C@@H]2O
–,–,–,24%,60.8 nM,–,–,–,–,CCOC(=O)[C@@]12C[C@@H]1[C@@H](n1cnc3c(NCCc4ccccc4)nc(C#Cc4ccc(Cl)s4)nc31)[C@H](O)[C@@H]2O
3.16 nM,–,–,31%,5.29 nM,39.7 nM,43.9 nM,–,3.75 nM,CNC(=O)[C@@]12C[C@@H]1[C@@H](n1cnc3c(NCCc4ccc(O)c(OC)c4)nc(C#Cc4ccc(Cl)s4)nc31)[C@H](O)[C@@H]2O
1.54 nM,2%,–,28%,0.563 nM,–,–,–,5130 nM,CNC(=O)[C@@]12C[C@@H]1[C@@H](n1cnc3c(NCCc4ccc(O)c(OC)c4)nc(C#Cc4ccccc4)nc31)[C@H](O)[C@@H]2O
11.9 nM,–,–,–,–,–,–,4.72 µM,151 nM,CNC(=O)[C@@]12C[C@@H]1[C@@H](n1cnc3c(NCCc4ccc(OC)c(O)c4)nc(OCC4CC4)nc31)[C@H](O)[C@@H]2O
5.31 nM,–,–,–,–,–,–,–,842 nM,CNC(=O)[C@@]12C[C@@H]1[C@@H](n1cnc3c(NCCc4ccc(OC)c(OC)c4)nc(I)nc31)[C@H](O)[C@@H]2O
1.91 nM,4%,42%,49%,3.37 nM,64 nM,64.9 nM,–,–,CNC(=O)[C@@]12C[C@@H]1[C@@H](n1cnc3c(NCCc4ccccc4)nc(C#Cc4ccc(Cl)s4)nc31)[C@H](O)[C@@H]2O
5.03 nM,–,–,–,–,–,–,4.86 µM,480 nM,CNC(=O)[C@@]12C[C@@H]1[C@@H](n1cnc3c(NCCc4ccc(OC)c(O)c4)nc(OCCC(C)C)nc31)[C@H](O)[C@@H]2O
–,–,–,36%,8.01 nM,–,–,–,–,CNC(=O)[C@@]12C[C@@H]1[C@@H](n1cnc3c(NCCc4ccc(OC)c(OC)c4)nc(C#Cc4ccc(Br)s4)nc31)[C@H](O)[C@@H]2O
–,27%,–,30%,0.58 nM,–,–,–,–,CNC(=O)[C@@]12C[C@@H]1[C@@H](n1cnc3c(NCCc4ccccc4)nc(C#Cc4ccccc4Cl)nc31)[C@H](O)[C@@H]2O
2.5 nM,31%,–,6%,62.7 nM,–,–,–,–,CNC(=O)[C@@]12C[C@@H]1[C@@H](n1cnc3c(NCCc4ccc(O)c(O)c4)nc(C#Cc4ccc(Br)s4)nc31)[C@H](O)[C@@H]2O
